Assays:
Assay type in all cases: cell-based, human
LoVo [1] = assay: Hydrogen peroxide level, H2DCFDA probe; conditions: compound at IC50, 24 h; for Increase in H2O2 levels: vs control
Description: Cellular H2O2 levels were assessed using 2′,7′-dichlorodihydrofluorescein diacetate (H2DCFDA, Sigma-Aldrich, St. Louis, MO, USA), a well-established fluorogenic probe for intracellular hydrogen peroxide detection. H2DCFDA readily diffuses across the cell membrane and is subsequently hydrolyzed by intracellular esterases to non-fluorescent H2DCF. Oxidation of H2DCF by ROS generates highly fluorescent 2′,7′-dichlorofluorescein (DCF), which accumulates in the cytosol. […] The fluorescence intensity of DCF is directly proportional to the concentration of ROS within the cell.
Cells were seeded in black 96-well fluorometric microplates at a density of 10 × 10^3 cells/mL. […] Following compound incubation, the medium was removed, and the cell monolayers were washed twice with HBSS (140 mM NaCl, 5 mM KCl, 0.8 mM MgCl2, 1.8 mM CaCl2, 1 mM Na2HPO4, 10 mM HEPES, and 1% glucose). A volume of 50 µL of H2DCFDA solution in HBSS (final concentration 5 μM) was added to each well, and the cells were incubated for 30 min in the dark at 37 °C. After incubation with the H2DCFDA, fluorescence measurements were conducted using a Perkin-Elmer LS-5B spectrofluorometer (MA, USA) at the following excitation and fluorescence emission wavelengths: λex = 498 nm/λem = 522 nm. The fluorescence intensity of control cells was arbitrarily assigned a value of 100%. The results were expressed as percentages of control, calculated by comparing the fluorescence intensity ratio of the test samples to controls (100%). The fluorescence of samples was denoted as Δf in relation to the control.

[2] = system: HCT 116, SW620, LoVo, Caco-2, and HT-29 cancer cell lines; assay: Alkaline comet assay (DNA damage), all cell lines; conditions: compound at IC50, 12 h; all five cell lines
Excerpt: Single-cell gel electrophoresis, also known as the comet assay, is a rapid and sensitive method for assessing DNA damage at the single-cell level. Cells are lysed and electrophoresed. Both single-strand and double-strand breaks are detected under alkaline conditions. The released DNA is denatured and moves in the agarose gel toward the anode during electrophoresis. The image, obtained after staining with the fluorescent dye 4′,6-diamidino-2-phenylindole (DAPI), resembles a “comet” with a distinct “head” (intact DNA) and “tail” (damaged DNA fragments). The length of the tail depends on the number and size of the broken DNA strands.
Cells (1 × 10^3) were seeded in 35 mm dishes and cultured in the medium for 24 h to attain the logarithmic growth phase. […] Subsequently, cells were trypsinized and centrifuged for 10 min at 100× g at 4 °C. A small amount of PBS and a 0.5% solution of low-melting-point agarose (LMP agarose) were added to the obtained cell pellet and placed on a glass slide covered with two layers of normal-melting-point agarose (NMP agarose). The slides were incubated for 24 h in a lysis buffer (2.5 M NaCl, 100 mM, Na2EDTA, 10 mM, Tris, 1% Triton X-100) to release DNA. […] Quantitative analysis of the DNA comet image of preparations stained with DAPI solution (2 μg/L) was performed using a camera connected to a fluorescence microscope. The comet DNA analysis was performed under a Nikon Eclipse fluorescence microscope (Nikon, Tokyo, Japan) equipped with a 4910 COHU video camera (Cohu, Inc., San Diego, CA, USA) and a computer with Lucia-Comet v. […] Each time, from each preparation, 100 randomly selected comets were counted. The extent of DNA damage is quantified by measuring the length of the comet tail and the amount of DNA it contains. The Lucia Comet software calculated the percentage of DNA damage based on measurements of color intensity and comet tail length. The intensity of fluorescence was determined by the software, which calculated a series of parameters characterizing the extent of DNA damage for each cell. […]

HCT 116 = assay: Cell cycle analysis via flow cytometry (propidium iodide); conditions: compound at IC50, 24 h, vs control
Description: (§1) The most commonly used fluorescent dyes for cell cycle analysis are fluorochromes that penetrate the cell membrane into the interior of permeabilized cells and bind stoichiometrically to DNA via intercalation, e.g., DAPI, propidium iodide (PI). The analysis is performed on cells fixed in ethanol. In this work, the cell cycle analysis was performed using the method described by Darzynkiewicz and Juan.
(§2) Cells (10 × 10^3) were seeded in 35 mm dishes and cultured in the medium for 24 h to attain the logarithmic growth phase. […] Subsequently, cells were trypsinized and centrifuged for 10 min at 400× g at 4 °C. The cell suspension in 100 μL of PBS was fixed in 1 mL of 70% ethanol (−20 °C) and stored at this temperature until analysis. Immediately before analysis, the ethanol-fixed cell suspension was centrifuged at 10,000 rpm for 10 min at 4 °C. The pellet was washed with cold (4 °C) PBS to remove residual ethanol, and the cell suspension was centrifuged again under the same conditions. A volume of 300 μL of PBS containing 4 mg/mL propidium iodide (final concentration 75 μM) and 1 mg/mL RNAse A (final concentration 20 μg/mL) was added to the cell pellet and incubated for at least 30 min at 37 °C in the dark. Stained cells were analyzed using a flow cytometer (Becton Dickinson, Franklin Lakes, NJ, USA), counting 10,000 cells in each sample. Data were analyzed using FlowJo 10.10 software (FlowJo, Williamson Way Ashland, OR, USA).

SW620 = assay: as above; conditions: compound at IC50, 24 h; for Increase in the G2/M phase cell fraction: vs control
Description: as §1, §2

LoVo [3] = assay: as above; conditions: compound at IC50, 24 h, vs control
Description: as §1, §2

O=C1/C(=C/c2ccccc2)COc2ccccc21 [Compound 1]
Increase in H2O2 levels (LoVo [1]): 10%
Genotoxic properties (comet assay) [2]: potent genotoxic properties
Increase in the G2/M phase cell fraction (HCT 116): approximately 10%
Change in cell cycle parameters or G2/M phase arrest (SW620): no statistically significant changes
Increase in the G2/M phase cell percentage (LoVo [3]): approximately 10%

COc1cccc(/C=C2/C(=O)c3ccccc3OC2c2ccccc2)c1 (stereo not drawn) [Compound 3]
Increase in H2O2 levels (LoVo [1]): 10%
Genotoxic properties (comet assay) [2]: potent genotoxic properties
Increase in the G2/M phase cell fraction (HCT 116): approximately 30%
Increase in the G2/M phase cell fraction (SW620): approximately 20%
Increase in the G2/M phase cell percentage (LoVo [3]): approximately 35%

O=C1/C(=C/c2ccccc2)C(c2ccccc2)Oc2ccccc21 (stereo not drawn) [Compound 5]
Effect on H2O2 levels (LoVo [1]): did not affect H2O2 levels
Genotoxic properties (comet assay) [2]: potent genotoxic properties
Increase in the G2/M phase cell fraction (HCT 116): 20%
Increase in the G2/M phase cell fraction (SW620): ~13%
Increase in the G2/M phase cell percentage (LoVo [3]): approximately 20%

Reference: publication PMC11641365, “Evaluation of In Vitro Biological Activity of Flavanone/Chromanone Derivatives: Molecular Analysis of Anticancer Mechanisms in Colorectal Cancer” (International Journal of Molecular Sciences, 2024)
